# Results taken from US11090304B2 (Amgen Inc., priority 2018, dated 2021).
# Read-outs that look alike come from different tables or passages of the source.
# Key:
# [1] = biological target: GDP-bound KRAS protein (aa 1-169), containing both G12C and C118A amino acid substitutions (Homo sapiens, UniProt P01116, C118A/G12C); assay: Coupled nucleotide exchange assay (SOS-mediated, AlphaScreen); format: biochemical; conditions: for Coupled exchange IC50 (5 min): 5 min compound pre-incubation; for Coupled exchange IC50 (2 h): 2 h compound pre-incubation
# Chain of GDP-bound KRAS protein (aa 1-169), containing both G12C and C118A amino acid substitutions (P01116 1-169 isoform P01116-2 G12C/C118A): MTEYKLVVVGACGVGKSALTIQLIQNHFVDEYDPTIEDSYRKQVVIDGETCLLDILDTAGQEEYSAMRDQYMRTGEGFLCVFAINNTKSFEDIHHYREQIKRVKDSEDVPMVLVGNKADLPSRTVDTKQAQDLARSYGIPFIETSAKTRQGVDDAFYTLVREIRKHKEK
# [2] = test system: Phosphorylation of ERK1/2 in MIA PaCa-2 cells; assay: Phospho-ERK1/2 MSD assay in MIA PaCa-2 cells; format: cell-based; conditions: Homo sapiens
# How it was run: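 In the procedure, cells were plated a day ahead at 25,000 per well. Next, a dilution series of compound in growth medium was added for 2 or 4 h. EGF (10 ng/mL) stimulation for 10 min preceded washing and RIPA lysis. Lysate phospho-ERK1/2 was read by MSD, with IC50 derived by 4-parameter logistic analysis.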
# [3] = test system: Phosphorylation of ERK1/2 in A549 cells; assay: Phospho-ERK1/2 MSD assay in A549 cells; format: cell-based; conditions: Homo sapiens
# Description: For compounds in Table 89, the following assay conditions were employed:
# Phospho-ERK1/2 MSD Assay:
# Sixteen hours prior to compound treatment, MIA PaCa-2 or A549 cells were seeded in 96-well cell culture plates at a density of 25,000 cells/well and incubated at 37° C., 5% CO2. A compound dose-response titration was diluted in growth media, added to appropriate wells of a cell culture plate, and then incubated at 37° C., 5% CO2 for 2 or 4 hours (see Table 15). Following compound treatment, cells were stimulated with 10 ng/mL EGF (Roche 11376454001) for 10 min, washed with ice-cold Dulbecco's phosphate-buffered saline, no Ca^2+ or Mg^2+ (ThermoFisher Scientific 14190144), and then lysed in RIPA buffer (50 mM Tris-HCl pH 7.5, 1% Igepal, 0.5% sodium deoxycholate, 150 mM NaCl, and 0.5% sodium dodecyl sulfate) containing protease inhibitors (Roche 4693132001) and phosphatase inhibitors (Roche 4906837001). Phosphorylation of ERK1/2 in compound-treated lysates was assayed using Phospho-ERK1/2 Whole Cell Lysate kits (Meso Scale Discovery K151DWD) according to the manufacturer's protocol. Assay plates were read on a Meso Scale Discovery Sector Imager 6000, and data were analyzed using a 4-parameter logistic model to calculate IC50 values.
# [4] = MIA PaCa-2, 2 h, read-out: p-ERK IC50 (2 h; MIA PaCa-2), 2 h compound treatment
# [5] = A549, 2 h, read-out: p-ERK IC50 (2 h; A549), 2 h compound treatment
# [6] = MIA PaCa-2, 4 h, read-out: p-ERK IC50 (4 h; MIA PaCa-2), 4 h compound treatment
# [7] = A549, 4 h, read-out: p-ERK IC50 (4 h; A549), 4 h compound treatment
Coupled exchange IC50 (5 min) [1],"IC50 [2, 4] [nM]","IC50 [3, 5] [nM]",Coupled exchange IC50 (2 h) [1],"IC50 [2, 6] [nM]","IC50 [3, 7] [nM]",Compound
0.109 | nda μM,66,≥ 10000,–,–,–,"C=CC(=O)N1CCN(c2nc(=O)n(-c3ccccc3C(C)C)c3nc(-c4cc(O)ccc4Br)c(Cl)cc23)[C@@H](C)C1 [Example 54-87, 7-(2-bromo-5-hydroxyphenyl)-6-chloro-4-((2S)-2-methyl-4-(2-propenoyl)-1-piperazinyl)-1-(2-(2-propanyl)phenyl)pyrido [2,3-d]pyrimidin-2(1H)-one]"
0.808 µM,407,≥ 10000,172 nM,223,≥ 100000,"C=CC(=O)N1CCN(c2nc(=O)n(-c3c(CC)cccc3CC)c3nc(-c4ccccc4)c(Cl)cc23)[C@@H](C)C1 [Example 54-62, 6-chloro-1-(2,6-diethylphenyl)-4-((2S)-2-methyl-4-(2-propenoyl)-1-piperazinyl)-7-phenyl-pyrido[2,3-d]pyrimidin-2(1H)-one]"
0.139 | nda μM,101,≥ 10000,–,–,–,"C=CC(=O)N1CCN(c2nc(=O)n(-c3ccccc3C(C)C)c3nc(-c4cc(O)ccc4F)c(Cl)cc23)[C@@H](C)C1 [Example 54-88, 6-chloro-7-(2-fluoro-5-hydroxyphenyl)-4-((2S)-2-methyl-4-(2-propenoyl)-1-piperazinyl)-1-(2-(2-propanyl)phenyl)pyrido [2,3-d]pyrimidin-2(1H)-one]"
0.384 | nda μM,236,≥ 10000,–,–,–,"C=CC(=O)N1CCN(c2nc(=O)n(-c3ccccc3C(C)C)c3nc(-c4ccccc4F)c(F)cc23)[C@@H](C)C1 (single isomer, unassigned) [Example 57-7-2]"
0.103 | nda μM,122,≥ 10000,–,–,–,"C=CC(=O)N1CCN(c2nc(=O)n(-c3c(CC)cccc3CC)c3nc(-c4ccccc4C(C)C)c(Cl)cc23)[C@@H](C)C1 [Example 54-23, 6-chloro-1-(2,6-diethylphenyl)-4-((2S)-2-methyl-4-(2-propenoyl)-1-piperazinyl)-7-(2-(2-propanyl)phenyl)pyrido [2,3-d]pyrimidin-2(1H)-one]"
0.809 | nda μM,387,≥ 10000,–,–,–,"C=CC(=O)N1CCN(c2nc(=O)n(-c3ccccc3C(C)C)c3nc(-c4cc(OC)ccc4Br)c(Cl)cc23)[C@@H](C)C1 [Example 60-26, 7-(2-bromo-5-methoxyphenyl)-6-chloro-4-((2S)-2-methyl-4-(2-propenoyl)-1-piperazinyl)-1-(2-(2-propanyl)phenyl)pyrido[2,3-d]pyrimidin-2(1H)-one]"
0.147 | nda μM,86,≥ 10000,–,–,–,"C=CC(=O)N1CCN(c2nc(=O)n(-c3cccnc3C(C)C)c3nc(-c4ccccc4F)c(Cl)cc23)[C@@H](C)C1 [Example 54-9, 6-chloro-7-(2-fluorophenyl)-4-((2S)-2-methyl-4-(2-propenoyl)-1-piperazinyl)-1-(2-(2-propanyl)-3-pyridinyl) pyrido[2,3-d]pyrimidin-2(1H)-one]"
0.845 µM,291,–,164 nM,136,≥ 33300,"C=CC(=O)N1CCN(c2nc(=O)n(-c3c(CC)cccc3CC)c3nc(-c4ccccc4O)c(Cl)cc23)[C@@H](C)C1 [Example 54-63, 6-chloro-1-(2,6-diethylphenyl)-7-(2-hydroxyphenyl)-4-((2S)-2-methyl-4-(2-propenoyl)-1-piperazinyl) pyrido[2,3-d]pyrimidin-2(1H)-one]"
0.781 µM,1510,≥ 10000,112 nM,–,–,"C=CC(=O)N1CCN(c2nc(=O)n(-c3c(CC)cccc3CC)c3nc(C4CC4)c(Cl)cc23)[C@@H](C)C1 [Example 94, 6-Chloro-7-cyclopropyl-1-(2,6-diethylphenyl)-4-((2S)-2-methyl-4-(2-propenoyl)-1-piperazinyl)pyrido[2,3-d]pyrimidin-2(1H)-one]"

# The remaining lines, values behind:
Compound,Coupled exchange IC50 (5 min) [1],"IC50 [2, 4] [nM]","IC50 [3, 5] [nM]",Coupled exchange IC50 (2 h) [1],"IC50 [2, 6] [nM]","IC50 [3, 7] [nM]"
"C=CC(=O)N1CCN(c2nc(=O)n(-c3nccnc3C3CC3)c3nc(-c4c(O)cccc4F)c(Cl)cc23)[C@@H](C)C1 [Example 60-8, 6-chloro-1-(3-cyclopropyl-2-pyrazinyl)-7-(2-fluoro-6-hydroxyphenyl)-4-((2S)-2-methyl-4-(2-propenoyl)-1-piperazinyl)pyrido[2,3-d]pyrimidin-2(1H)-one]",0.173 | nda μM,72,≥ 10000,–,–,–
"C=CC(=O)N1CCN(c2nc(=O)n(-c3nccn3C(C)C)c3nc(-c4c(O)cccc4F)c(Cl)cc23)[C@@H](C)C1 [Example 54-13, 6-chloro-7-(2-fluoro-6-hydroxy-phenyl)-4-((2S)-2-methyl-4-(2-propenoyl)-1-piperazinyl)-1-(1-(2-propanyl)-1H-imidazol-2-yl)pyrido[2,3-d]pyrimidin-2(1H)-one]",0.811 | nda μM,2560,≥ 10000,–,–,–
"C=CC(=O)N1CCN(c2nc(=O)n(-c3ccccc3C(C)C)c3nc(Cl)c(Cl)cc23)[C@@H](C)C1 [Example 61-1, 6,7-Dichloro-4-((2S)-2-methyl-4-(2-propenoyl)-1-piperazinyl)-1-(2-(2-propanyl)phenyl)pyrido[2,3-d]pyrimidin-2(1H)-one]",–,2480,≥ 100000,nda | 0.776 μM,992,≥ 11100
"C=CC(=O)N1CCN(c2nc(=O)n(-c3ccncc3C3CC3)c3nc(-c4c(O)cccc4F)c(Cl)cc23)[C@@H](C)C1 [Example 54-59, 6~chloro-1-(3-cyclopropyl-4-pyridinyl)-7-(2-fluoro-6-hydroxyphenyl)-4-((2S)-2-methyl-4-(2-propenoyl)-1-piperazinyl) pyrido[2,3-d]pyrimidin-2(1H)-one]",0.22 | nda μM,712,≥ 10000,–,–,–
"C=CC(=O)N1CCN(c2nc(=O)n(-c3ccncc3C3CC3)c3cc(-c4c(O)cccc4F)c(Cl)cc23)[C@@H](C)C1 [Example 62-3, 6-chloro-1-(3 cyclopropyl-4-pyridinyl)-7-(2-fluoro-6-hydroxyphenyl)-4-((2S)-2-methyl-4-(2-propenoyl)-1-piperazinyl)-2(1H)-quinazolinone]",0.147 | nda μM,845,≥ 10000,–,–,–
"C=CC(=O)N1CCN(c2nc(=O)n(-c3cccnc3C(C)C)c3nc(-c4c(O)cccc4F)c(Cl)cc23)[C@@H](C)C1 [Example 54-11, 6-chloro-7-(2-fluoro-6-hydroxyphenyl)-4-((2S)-2-methyl-4-(2-propenoyl)-1-piperazinyl)-1-(2-(2-propanyl)-3-pyridinyl) pyrido[2,3-d]pyrimidin-2(1H)-one]",0.069 | nda μM,63,≥ 10000,–,–,–
C=CC(=O)N1CCN(c2nc(=O)n(CC(C)(C)C)c3nc(-c4ccccc4F)c(Cl)cc23)CC1 [Example 60-6],1.85 µM,–,–,161 nM,1040,67700
"C=CC(=O)N1CCN(c2nc(=O)n(CC3(C)CC3)c3nc(-c4c(O)cccc4F)c(Cl)cc23)[C@@H](C)C1 [Example 54-6, 6-chloro-7-(2-fluoro~ 6-hydroxyphenyl)-1-((1-methylcyclopropyl)methyl)-4-((2S)-2-methyl-4-(2-propenoyl)-1-piperazinyl) pyrido[2,3-d]pyrimidin-2(1H)-one]",0.306 | nda μM,528,≥ 10000,–,–,–
"C=CC(=O)N1CCN(c2nc(=O)n(-c3nccnc3C(C)(C)C)c3nc(-c4c(O)cccc4F)c(Cl)cc23)[C@@H](C)C1 (single isomer, unassigned) [Example 55-23-2]",0.062 | nda μM,77,≥ 10000,–,–,–
"C=CC(=O)N1CCN(c2nc(=O)n(-c3nocc3C3CC3)c3nc(-c4c(O)cccc4F)c(Cl)cc23)[C@@H](C)C1 [Example 54-24, 6-chloro-1-(4-cyclopropyl-1,2-oxazol-3-yl)-7-(2-fluoro-6-hydroxyphenyl)-4-((2S)-2-methyl-4-(2-propenoyl)-1-piperazinyl) pyrido[2,3-d]pyrimidin-2(1H)-one]",0.797 | nda μM,942,≥ 10000,–,–,–
